# Reference: patent EP0803065B1, “A-PROTEIN AS A DIAGNOSTIC OF CANCER” (THE SCHEPENS EYE RESEARCH INSTITUTE, priority 1995, dated 1996)
# Assays:
# [1] = molecular target: T1, membrane-bound A-protein (Am), purified from bovine rod outer segments, N-terminus SEQ ID NO:1 (Bos taurus, UniProt P21457); assay: ATPase assay (hydrolysis of [γ-32P]ATP); type: biochemical; settings: double reciprocal plots and regression analysis
# T1 sequence (P21457 2-202): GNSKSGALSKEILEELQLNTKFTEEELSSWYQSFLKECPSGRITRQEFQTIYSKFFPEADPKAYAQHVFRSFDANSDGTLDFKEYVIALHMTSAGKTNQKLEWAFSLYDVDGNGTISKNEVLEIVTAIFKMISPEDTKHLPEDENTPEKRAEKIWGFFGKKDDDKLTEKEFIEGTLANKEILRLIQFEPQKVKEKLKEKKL
# Protocol: (§1) GTP (2.8 Ci/mmol) or 88.8 to 177.5 nM [γ-^32P] […] The stripped ROS membranes (containing rhodopsin as the receptor) were prepared by washing ROS membranes 3 times in buffer C(100 mM NaCl, 20 mM Tris-HCl, pH 7.0, 1 mM MgCl2) and 3 times in water containing 0.01% polyoxyethylene 23 lauryl ether (Brij 35™ nonionic detergent, Sigma Chemical Co.). The stripped membranes were resuspended in buffer D (10 mM Tris-HCl, pH 7.0, 0.1 mM EGTA) prior to use.
# (§2) Samples were incubated at room temperature for 5 minutes and quenched with 200 µl ice-cold quench buffer ([…] KH2PO4, 6% Norite A, 10% TCA). The samples were kept on ice for 30 minutes and spun down for 5 minutes in a microcentrifuge. 50 µl aliquots of each supernatant were placed in a vial with 5 ml scintillation fluid and assayed for radioactivity. The hydrolysis of [γ-^32P]-GTP was measured in the presence and absence of photolyzed rhodopsin.
# Km and Vmax were determined by construction of double reciprocal plots and regression analysis.
# [2] = molecular target: T1, membrane-bound A-protein (Am), purified from bovine rod outer segments, N-terminus SEQ ID NO:1; assay: GTPase assay (hydrolysis of [γ-32P]GTP); type: biochemical
# Protocol: as §1, §2
# The apparent Michaelis constant was determined for As and Am by measuring the rate of GTP hydrolysis over a thousand-fold range of substrate concentrations. Km and Vmax were determined by construction of double reciprocal plots and regression analysis.
# transducin (Tα) = transducin (Tα) (Bos taurus, UniProt P04695); assay: GTPase assay, comparison protein; type: biochemical; settings: mol/mol basis, submaximal velocity, in the presence of photoactivated rhodopsin
# Protocol: as §1, §2
# The GTPase rates for Am and transducin are additive when the two purified proteins are present in approximately equimolar concentrations.
# [3] = molecular target: T1, membrane-bound A-protein (Am), purified from bovine rod outer segments, N-terminus SEQ ID NO:1; assay: GTP analog binding assay (nitrocellulose filtration); settings: 30 minutes, no cofactors
# Protocol: (§3) Assays of the binding of the GTP-analogs Gpp(NH)p and GTPγS (New England Nuclear) by both Am and AS were performed according to the methods of Northup et al. (J. Biol. Chem., 257:11416-11423 (1982)). Binding was carried out in a total volume of 100 µl of solution containing 5 to 10 µg purified A-protein, 15.3 µM 3H-Gpp(NH)p (10 µCi) or 1.32 µM GTPγS^35 (1 µCi) and buffer (100 mM NaCl, 0.1 mM EDTA, 20 mM Tris-HCl, pH 7.0). The samples were vortexed and incubated at 25°C for 30 minutes, quenched with 200 µl ice-cold buffer (0.5 M NaCl, 0.1 M Tris-HCl, 0.1% Tween 80™), and kept on ice for 30 minutes. The samples were placed onto nitrocellulose filters that had been previously washed with 2 ml of the same buffer. The filters were rinsed 5 times with 2 ml ice-cold buffer and assayed for radioactivity.
# [4] = molecular target: T2, soluble A-protein (As), purified from bovine rod outer segments, N-terminus SEQ ID NO:2 (Bos taurus, UniProt P21457); assay: as above; settings: 30 minutes, no cofactors
# T2 sequence (P21457 2-202): T1 sequence (P21457 2-202)
# Protocol: as §3
# Sequence of transducin (Tα) (P04695 2-350 limits assumed): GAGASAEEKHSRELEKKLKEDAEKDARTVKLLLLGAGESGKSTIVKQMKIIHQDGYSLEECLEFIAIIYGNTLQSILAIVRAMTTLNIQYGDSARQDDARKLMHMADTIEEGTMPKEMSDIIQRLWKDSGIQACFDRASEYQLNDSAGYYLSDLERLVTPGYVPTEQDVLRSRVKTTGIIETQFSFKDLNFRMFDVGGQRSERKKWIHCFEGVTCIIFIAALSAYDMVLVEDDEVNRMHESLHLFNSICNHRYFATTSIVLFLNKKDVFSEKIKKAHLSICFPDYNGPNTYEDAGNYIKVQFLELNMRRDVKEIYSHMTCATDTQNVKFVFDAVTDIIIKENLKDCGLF
smiles,measurement,setting,value
"Nc1ncnc2c1ncn2[C@@H]1O[C@H](COP(=O)(O)OP(=O)(O)OP(=O)(O)O)[C@@H](O)[C@H]1O [ATP, adenosine triphosphate]",Vmax:Am ATPase,[1],2.90 (±0.16) pmol/mg A-protein min^-1
"Nc1nc2c(ncn2[C@@H]2O[C@H](COP(=O)(O)OP(=O)(O)OP(=O)(O)O)[C@@H](O)[C@H]2O)c(=O)[nH]1 [GTP, guanosine triphosphate]",Vmax:Am GTPase,[2]; double reciprocal plots and regression analysis,16.4 nmol/mgAmmin^-1
same,rate of GTP hydrolysis by Am,"[2]; mol/mol basis, submaximal velocity, in the presence of photoactivated rhodopsin",0.458 GTP sec^-1/Am
same,rate of GTP hydrolysis by transducin,transducin (Tα),0.512 GTP sec^-1/Tα
Nc1nc2c(ncn2[C@@H]2O[C@H](COP(=O)(O)OP(=O)(O)OP(O)(O)=S)[C@@H](O)[C@H]2O)c(=O)[nH]1 [GTPγS],GTPγS bound by Am,"[3]; 1.32 µM GTPγS35, 25°C",0.93 mol GTP Analog/mol Protein
same,GTPγS bound by As,"[4]; 1.32 µM GTPγS35, 25°C",0.47 mol GTP Analog/mol Protein
Nc1nc2c(ncn2[C@@H]2O[C@H](COP(=O)(O)OP(=O)(O)NP(=O)(O)O)[C@@H](O)[C@H]2O)c(=O)[nH]1 [Gpp(NH)p],Gpp(NH)p bound by Am,"[3]; 15.3 µM 3H-Gpp(NH)p, 25°C",0.57 ± 0.12 mol GTP Analog/mol Protein
same,Gpp(NH)p bound by As,"[4]; 15.3 µM 3H-Gpp(NH)p, 25°C",0.29 ± 0.08 mol GTP Analog/mol Protein
